We go through 46 compounds from US7989469B2, “Certain chemical entities, compositions, and methods” (Cytokinetics, Incorporated, priority 2008, dated 2011).

The test system of the assay is rabbit skeletal muscle myofibril preparations (approximately 90% fast fibers). Put plainly: Activation of fast skeletal muscle fibers: enzymatic activity of myofibril preparations (PUMA assay system). The assay is classed as biochemical. Also noted: unit not given here. As to conditions: detergent treated myofibrils at pCa25%, 500 μM ATP. The text has this: Fast fiber activators were identified by measuring the enzymatic activity of muscle myofibril preparations using the proprietary PUMA™ (see, e.g., U.S. Pat. Nos. 6,410,254, 6,743,599, 7,202,051, and 7,378,254) assay system. Myofibril preparations consisted of rabbit skeletal muscle (approximately 90% fast fibers) that had been treated with a detergen (triton X-100) to remove cellular membranes and then homogenized. This preparation retained all of the sarcomeric components in a native conformation and the enzymatic activity was still regulated by calcium. Compounds were tested using a myofibril suspension and a level of calcium sufficient to increase enzymatic activity of the myofibrils to 25% of their maximal rate (termed pCa25%). Enzymatic activity was tracked via a kinetic assay with a UV absorption readout. Hits were identified as compounds that increased the rate of enzymatic activity by greater than 40% at 40 μM. Myofibril preparations are calcium regulated and were screened at a level of calcium sufficient to produce a 25% increase in enzymatic rate. Detergent treated myofibrils were incubated with 500 μM ATP and 40 μM compound and a kinetic read of UV absorbance performed. Data was normalized to control wells.

`CC[C@H](CC(C)(C)O)n1c(O)nc2ncc(Cl)c(-c3ccc(F)cc3)c21` [1-((1R)-1-ethyl-3-hydroxy-3-methylbutyl)-6-chloro-7-(4-fluorophenyl)imidazo[4,5-b]pyridin-2-ol]: for the setting “median value (no †)”, the “AC1.4 Median” value is 2.9192.

With “6-chloro-1-(ethylpropyl)-7-(2-fluoro-4-methoxyphenyl)imidazo[4,5-b]pyridin-2-ol”, the “AC1.4 Median” value (median value (no †)) stood at 0.942.

As for “7-(1H-indazol-6-yl)-6-chloro-1-(ethylpropyl)imidazo[4,5-b]pyridin-2-ol”, the “AC1.4 Median” value (median value (no †)) was 4.216.

`CC[C@@H](CO)n1c(O)nc2ncc(Cl)c(-c3cnccn3)c21` [1-((1S)-1-ethyl-2-hydroxyethyl)-6-chloro-7-pyrazin-2-ylimidazo[4,5-b]pyridin-2-ol]: the “AC1.4 Median” value (median value (no †)) is 40.701.

Turning to “6-chloro-1-(ethylpropyl)-7-(5-fluoro(3-pyridyl))imidazo[4,5-b]pyridin-2-ol”, the “AC1.4 Median” value (median value (no †)) was 4.428.

As for `CC[C@@H](CO)n1c(O)nc2ncc(-c3ccc(F)cc3)c(-c3ccc(F)cc3)c21` [1-((1S)-1-ethyl-2-hydroxyethyl)-6,7-bis(4-fluorophenyl)imidazo[4,5-b]pyridin-2-ol], the “AC1.4 Median” value (median value (no †)) is recorded as 17.720.

As for `COCC(COC)n1c(O)nc2ncc(Cl)c(-n3cccn3)c21` [6-chloro-1-[2-methoxy-1-(methoxymethyl)ethyl]-7-pyrazolylimidazo[4,5-b]pyridin-2-ol], the “AC1.4 Median” value (median value (no †)) is reported as 27.9068.

`CC[C@H](COC(C)=O)c1nc2nc(O)[nH]c2c(-c2ccc(F)cc2)c1Cl` [(2S)-2-[6-chloro-7-(4-fluorophenyl)-2-hydroxyimidazo[4,5-b]pyridinyl]butyl acetate]: where the note is “cells marked †: Mean value”, the “AC1.4 Median” value is 0.234†.

With `CC(C)(C)n1c(O)nc2ncc(Cl)c(-c3ccc(F)cc3)c21` [1-(tert-butyl)-6-chloro-7-(4-fluorophenyl)imidazo[4,5-b]pyridin-2-ol], the “AC1.4 Median” value (cells marked †: Mean value) is listed as 0.199†.

Consider `C[C@@H](CO)n1c(O)nc2ncc(Cl)c(-c3ccc(F)cc3)c21` [1-((1S)-2-hydroxy-isopropyl)-6-chloro-7-(4-fluorophenyl)imidazo[4,5-b]pyridin-2-ol], for which the “AC1.4 Median” value (median value (no †)) is listed as 2.016.

For “6-chloro-1-(ethylpropyl)-7-[2-(trifluoromethyl)(4-pyridyl)]imidazo[4,5-b]pyridin-2-ol”, the “AC1.4 Median” value (median value (no †)) was found to be 3.590.

For the compound “6-chloro-1-(ethylpropyl)-7-[2-(methoxymethyl)phenyl]imidazo[4,5-b]pyridin-2-ol”, under “median value (no †)”, the “AC1.4 Median” value is 3.588.

Take “6-chloro-7-(2-chloro-4-methylphenyl)-1-(ethylpropyl)imidazo[4,5-b]pyridin-2-ol”: the “AC1.4 Median” value (median value (no †)) was 0.587.

On to `CC[C@H](C)n1c(O)nc2ncc(Cl)cc21` [1-((1S)-1-methylpropyl)-6-chloroimidazo[4,5-b]pyridin-2-ol], for which, under “median value (no †)”, the “AC1.4 Median” value came out at 1.7291.

For the compound `CC(C)CC(CO)n1c(O)nc2ncc(Cl)c(-c3ccc(F)cc3)c21` (stereo not shown) [6-chloro-7-(4-fluorophenyl)-1-[2-hydroxy-1-(2-methylpropyl)ethyl]imidazo[4,5-b]pyridin-2-ol], under “median value (no †)”, the “AC1.4 Median” value was found to be 0.210.

For “6-chloro-1-(ethylpropyl)-7-(5-methyl(2-pyridyl))imidazo[4,5-b]pyridin-2-ol”, the “AC1.4 Median” value (median value (no †)) is on record as 5.708.

Consider “1-(ethylpropyl)-7-phenylimidazo[4,5-b]pyridin-2-ol”, for which the “AC1.4 Median” value (median value (no †)) was 2.083.

As to `CC[C@H](n1c(O)nc2ncc(Cl)c(-c3ccc(F)cn3)c21)C(C)(C)O` [1-((1S)-1-ethyl-2-hydroxy-2-methylpropyl)-6-chloro-7-(5-fluoro(2-pyridyl))imidazo[4,5-b]pyridin-2-ol], for the setting “median value (no †)”, the “AC1.4 Median” value is reported as 6.420.

For the compound `CCC(C)n1c(O)nc2ncc(Cl)c(-n3cccn3)c21` (stereo not shown) [6-chloro-1-(methylpropyl)-7-pyrazolylimidazo[4,5-b]pyridin-2-ol], under “median value (no †)”, the “AC1.4 Median” value was 1.3927.

For “N-{4-[6-chloro-1-(ethylpropyl)-2-hydroxyimidazo[4,5-b]pyridin-7-yl]phenyl}acetamide”, the “AC1.4 Median” value (median value (no †)) was found to be 28.930.

For the compound `CC[C@H](COP(=O)(O)O)c1nc2nc(O)[nH]c2c(-c2ccc(F)cc2)c1Cl` [(2S)-2-[6-chloro-7-(4-fluorophenyl)-2-hydroxyimidazo[4,5-b]pyridinyl]butyl dihydrogen phosphate], for the setting “median value (no †)”, the “AC1.4 Median” value was 31.644.

“methyl 3-[6-chloro-1-(ethylpropyl)-2-hydroxyimidazo[4,5-b]pyridin-7-yl]benzoate”: the “AC1.4 Median” value (median value (no †)) is given as 9.682.

On to `CCC(CC)n1c(O)nc2ncc(Cl)c(-c3cccc(C=O)c3)c21` [3-[6-chloro-1-(ethylpropyl)-2-hydroxyimidazo[4,5-b]pyridin-7-yl]benzaldehyde], for which the “AC1.4 Median” value (median value (no †)) turned out to be 1.943.

For the compound `Oc1nc2ncc(Cl)c(-c3ccc(F)cc3)c2n1C1CCCC1` [6-chloro-1-cyclopentyl-7-(4-fluorophenyl)imidazo[4,5-b]pyridin-2-ol], the “AC1.4 Median” value (median value (no †)) is 1.677.

Turning to `C[C@@H](CO)n1c(O)nc2ncc(Cl)c(-c3ccc(Cl)cc3)c21` [1-((1S)-2-hydroxy-isopropyl)-6-chloro-7-(4-chlorophenyl)imidazo[4,5-b]pyridin-2-ol], the “AC1.4 Median” value (median value (no †)) is on record as 1.260.

With `CC[C@H](CN)n1c(O)nc2ncc(Cl)c(-c3ccc(F)cc3)c21` [1-((1R)-2-amino-1-ethylethyl)-6-chloro-7-(4-fluorophenyl)imidazo[4,5-b]pyridin-2-ol], the “AC1.4 Median” value (median value (no †)) amounted to 46.969.

For the compound `OCCn1c(O)nc2ncc(Cl)c(-c3ccccc3)c21` [6-chloro-1-(2-hydroxyethyl)-7-phenylimidazo[4,5-b]pyridin-2-ol], the “AC1.4 Median” value (median value (no †)) is given as 34.551.

Turning to “6-chloro-1-(methylethyl)-7-pyrazolylimidazo[4,5-b]pyridin-2-ol”, the “AC1.4 Median” value (median value (no †)) came out at 2.0829.

For “6-chloro-1-(ethylpropyl)-7-[4-(trifluoromethyl)phenyl]imidazo[4,5-b]pyridin-2-ol”, the “AC1.4 Median” value (cells marked †: Mean value) is listed as 0.274†.

Consider “7-(3,4-difluorophenyl)-6-chloro-1-(ethylpropyl)imidazo[4,5-b]pyridin-2-ol”, for which the “AC1.4 Median” value (cells marked †: Mean value) was 0.106†.

For `CC[C@H](COC)n1c(O)nc2ncc(Cl)c(-c3ccc(F)cn3)c21` [1-[(1R)-1-(methoxymethyl)propyl]-6-chloro-7-(5-fluoro(2-pyridyl))imidazo[4,5-b]pyridin-2-ol], where the note is “median value (no †)”, the “AC1.4 Median” value worked out at 1.142.

In the case of `CC(C)C[C@@H](CO)n1c(O)nc2ncc(Cl)c(-c3ccc(F)cc3)c21` [1-[(1S)-2-hydroxy-1-(2-methylpropyl)ethyl]-6-chloro-7-(4-fluorophenyl)imidazo[4,5-b]pyridin-2-ol], under “cells marked †: Mean value”, the “AC1.4 Median” value is recorded as 0.072†.

On to `CC[C@@H](CC(C)(C)O)n1c(O)nc2ncc(Cl)c(-c3ccc(F)cc3)c21` [1-((1S)-1-ethyl-3-hydroxy-3-methylbutyl)-6-chloro-7-(4-fluorophenyl)imidazo[4,5-b]pyridin-2-ol], for which the “AC1.4 Median” value (median value (no †)) is on record as 1.0092.

In the case of “6-chloro-1-(ethylpropyl)-7-[3-(hydroxymethyl)phenyl]imidazo[4,5-b]pyridin-2-ol”, the “AC1.4 Median” value (median value (no †)) was determined as 14.377.

In the case of “6-chloro-1-(ethylpropyl)-7-(1-methylpyrazol-4-yl)imidazo[4,5-b]pyridin-2-ol”, where the note is “median value (no †)”, the “AC1.4 Median” value came to 17.805.

Consider `CC[C@H](CCO)n1c(O)nc2ncc(Cl)c(-c3ccc(F)cc3)c21` [1-((1R)-1-ethyl-3-hydroxypropyl)-6-chloro-7-(4-fluorophenyl)imidazo[4,5-b]pyridin-2-ol], for which the “AC1.4 Median” value (median value (no †)) is listed as 2.547.

In the case of “2-[6-chloro-1-(ethylpropyl)-2-hydroxyimidazo[4,5-b]pyridin-7-yl]benzenecarbonitrile”, the “AC1.4 Median” value (median value (no †)) turned out to be 2.886.

With `CC[C@@H](CN)n1c(O)nc2ncc(Cl)c(-c3ccc(F)cc3)c21` [1-((1S)-2-amino-1-ethylethyl)-6-chloro-7-(4-fluorophenyl)imidazo[4,5-b]pyridin-2-ol], the “AC1.4 Median” value (median value (no †)) was determined as 24.3174.

Consider `CC[C@@H](COC)n1c(O)nc2ncc(Cl)c(-c3ccc(F)cc3)c21` [1-[(1S)-1-(methoxymethyl)propyl]-6-chloro-7-(4-fluorophenyl)imidazo[4,5-b]pyridin-2-ol], for which the “AC1.4 Median” value (median value (no †)) is 0.317.

For the compound “4-[6-chloro-1-(ethylpropyl)-2-hydroxyimidazo[4,5-b]pyridin-7-yl]benzenecarbonitrile”, under “cells marked †: Mean value”, the “AC1.4 Median” value was 0.405†.

As for `CC[C@@H](CO)n1c(O)nc2ncc(Cl)c(-c3ccccc3)c21` [1-((1S)-1-ethyl-2-hydroxyethyl)-6-chloro-7-phenylimidazo[4,5-b]pyridin-2-ol], the “AC1.4 Median” value (median value (no †)) is 1.474.

Consider `C[C@H](CO)n1c(O)nc2ncc(Cl)c(-c3ccc(F)cc3)c21` [1-((1R)-2-hydroxy-isopropyl)-6-chloro-7-(4-fluorophenyl)imidazo[4,5-b]pyridin-2-ol], for which the “AC1.4 Median” value (median value (no †)) was 11.044.

With “{3-[6-chloro-1-(ethylpropyl)-2-hydroxyimidazo[4,5-b]pyridin-7-yl]phenyl}-N,N-dimethylcarboxamide”, under “median value (no †)”, the “AC1.4 Median” value was 21.245.

Regarding “6-chloro-1-(ethylpropyl)-7-imidazolylimidazo[4,5-b]pyridin-2-ol”, the “AC1.4 Median” value (median value (no †)) was determined as 22.2909.

As to “6-chloro-1-(ethylpropyl)-7-(5-methylpyrimidin-2-yl)imidazo[4,5-b]pyridin-2-ol”, the “AC1.4 Median” value (median value (no †)) is listed as 18.694.

On to `CCC(CC)n1c(O)nc2ncc(Cl)c(-c3ccnc(C#N)c3)c21` [4-(6-chloro-2-hydroxy-1-(pentan-3-yl)-1H-imidazo[4,5-b]pyridin-7-yl)picolinonitrile], for which the “AC1.4 Median” value (median value (no †)) was determined as 9.842.
